In article PMC5666424, “Marine-Derived 2-Aminoimidazolone Alkaloids. Leucettamine B-Related Polyandrocarpamines Inhibit Mammalian and Protozoan DYRK & CLK Kinases” (Marine Drugs, 2017):

Columns and labels:
Experiment in all cases: KinomeScan
Format in all cases: binding
Conditions in all cases: 1 μM
[1] = biological target: T1, RPS6KA4 (Kin.Dom.2-C-terminal) (Homo sapiens, UniProt O75676)
T1 construct: Kin.Dom.2-C-terminal; purchased DiscoveRx (KinomeScan, San Diego, CA, USA)

KIT(L576P) = biological target: T2, KIT(L576P) (Homo sapiens, UniProt P10721, L576P)
T2 construct: purchased DiscoverX (KINOMEscan)

DMPK = biological target: T3, DMPK (Homo sapiens, UniProt Q09013)
T3 construct: purchased DiscoverX (KINOMEscan)
T3 sequence (Q09013 whole entry): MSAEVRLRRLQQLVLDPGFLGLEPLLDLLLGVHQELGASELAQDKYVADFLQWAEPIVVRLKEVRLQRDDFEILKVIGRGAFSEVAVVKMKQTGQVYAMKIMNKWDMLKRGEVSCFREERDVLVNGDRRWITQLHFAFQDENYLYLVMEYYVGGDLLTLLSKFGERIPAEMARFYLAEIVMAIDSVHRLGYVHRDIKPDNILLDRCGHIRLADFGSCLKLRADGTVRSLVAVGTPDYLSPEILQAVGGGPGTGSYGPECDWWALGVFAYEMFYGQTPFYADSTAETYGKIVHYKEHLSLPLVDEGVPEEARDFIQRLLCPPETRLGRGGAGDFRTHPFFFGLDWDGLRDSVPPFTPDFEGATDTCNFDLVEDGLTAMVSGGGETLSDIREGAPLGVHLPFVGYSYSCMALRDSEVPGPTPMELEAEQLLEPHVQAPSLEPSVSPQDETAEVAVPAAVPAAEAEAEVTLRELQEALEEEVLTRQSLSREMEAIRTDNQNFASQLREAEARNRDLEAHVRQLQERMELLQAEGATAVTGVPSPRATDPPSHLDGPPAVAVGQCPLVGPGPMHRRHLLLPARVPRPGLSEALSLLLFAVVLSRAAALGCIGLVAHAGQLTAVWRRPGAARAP

CDK2 = biological target: T4, CDK2 (Homo sapiens, UniProt P24941)
T4 construct: purchased DiscoverX (KINOMEscan)

LRRK2(G2019S) = biological target: T5, LRRK2(G2019S) (Homo sapiens, UniProt Q5S007, G2019S)
T5 construct: purchased DiscoverX (KINOMEscan)

DAPK2 = biological target: T6, DAPK2 (Homo sapiens, UniProt Q9UIK4)
T6 construct: purchased DiscoverX (KINOMEscan)

[2] = biological target: T7, ABL1(F317L)-phosphorylated (Homo sapiens, UniProt P00519, F317L)
T7 construct: purchased DiscoverX (KINOMEscan)

CAMK2G = biological target: T8, CAMK2G (Homo sapiens, UniProt Q13555)
T8 construct: purchased DiscoverX (KINOMEscan)

MST1 = biological target: T9, MST1 (Homo sapiens, UniProt Q13043)
T9 construct: purchased DiscoverX (KINOMEscan)

AKT2 = biological target: T10, AKT2 (Homo sapiens, UniProt P31751)
T10 construct: purchased DiscoverX (KINOMEscan)

MST3 = biological target: T11, MST3 (Homo sapiens, UniProt Q9Y6E0)
T11 construct: purchased DiscoverX (KINOMEscan)

HCK = biological target: T12, HCK (Homo sapiens, UniProt P08631)
T12 construct: purchased DiscoverX (KINOMEscan)
T12 sequence (P08631 whole entry): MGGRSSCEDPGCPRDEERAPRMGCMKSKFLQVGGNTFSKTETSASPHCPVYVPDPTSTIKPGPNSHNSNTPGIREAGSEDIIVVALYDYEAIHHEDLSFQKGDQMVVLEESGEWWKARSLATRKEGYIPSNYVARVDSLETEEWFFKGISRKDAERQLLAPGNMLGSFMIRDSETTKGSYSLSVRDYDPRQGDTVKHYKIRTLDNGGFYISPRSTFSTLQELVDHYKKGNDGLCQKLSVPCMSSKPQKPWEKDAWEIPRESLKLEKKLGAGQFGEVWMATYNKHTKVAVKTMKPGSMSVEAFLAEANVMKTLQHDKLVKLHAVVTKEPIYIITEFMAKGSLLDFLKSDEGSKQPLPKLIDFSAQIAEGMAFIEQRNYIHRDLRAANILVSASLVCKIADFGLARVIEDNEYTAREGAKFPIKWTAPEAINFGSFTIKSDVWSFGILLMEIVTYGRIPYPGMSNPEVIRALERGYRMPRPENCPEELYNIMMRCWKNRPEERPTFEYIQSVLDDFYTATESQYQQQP

MAP3K1 = biological target: T13, MAP3K1 (Homo sapiens, UniProt Q13233)
T13 construct: purchased DiscoverX (KINOMEscan)

EPHB3 = biological target: T14, EPHB3 (Homo sapiens, UniProt P54753)
T14 construct: purchased DiscoverX (KINOMEscan)
T14 sequence (P54753 34-998): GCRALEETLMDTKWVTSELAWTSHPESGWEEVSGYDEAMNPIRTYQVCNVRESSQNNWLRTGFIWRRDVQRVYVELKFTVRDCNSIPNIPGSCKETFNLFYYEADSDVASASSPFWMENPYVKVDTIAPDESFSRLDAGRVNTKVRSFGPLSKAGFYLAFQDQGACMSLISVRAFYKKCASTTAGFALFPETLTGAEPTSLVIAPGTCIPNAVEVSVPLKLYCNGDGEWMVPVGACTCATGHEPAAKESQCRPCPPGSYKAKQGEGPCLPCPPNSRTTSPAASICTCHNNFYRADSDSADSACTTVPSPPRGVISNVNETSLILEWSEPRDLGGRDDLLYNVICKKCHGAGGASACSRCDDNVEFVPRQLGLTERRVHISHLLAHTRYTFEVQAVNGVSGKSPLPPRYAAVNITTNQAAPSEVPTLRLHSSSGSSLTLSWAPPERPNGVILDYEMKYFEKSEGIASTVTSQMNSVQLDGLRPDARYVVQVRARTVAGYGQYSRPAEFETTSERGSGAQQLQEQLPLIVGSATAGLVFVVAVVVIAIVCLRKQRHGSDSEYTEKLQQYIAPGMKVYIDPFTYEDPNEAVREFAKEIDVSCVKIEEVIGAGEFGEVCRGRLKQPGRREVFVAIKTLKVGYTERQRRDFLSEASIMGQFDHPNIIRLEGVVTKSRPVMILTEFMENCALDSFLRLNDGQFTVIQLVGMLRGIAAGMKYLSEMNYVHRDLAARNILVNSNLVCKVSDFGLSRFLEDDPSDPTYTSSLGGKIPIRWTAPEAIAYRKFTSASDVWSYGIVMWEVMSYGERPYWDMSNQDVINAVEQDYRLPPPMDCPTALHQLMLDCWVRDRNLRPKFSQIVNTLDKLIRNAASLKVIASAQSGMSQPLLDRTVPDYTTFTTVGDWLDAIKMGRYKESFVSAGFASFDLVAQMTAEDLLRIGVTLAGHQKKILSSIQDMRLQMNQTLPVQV

CDK11 = biological target: T15, CDK11 (Homo sapiens, UniProt Q9BWU1)
T15 construct: purchased DiscoverX (KINOMEscan)

FRK = biological target: T16, FRK (Homo sapiens, UniProt P42685)
T16 construct: purchased DiscoverX (KINOMEscan)

LATS2 = biological target: T17, LATS2 (Homo sapiens, UniProt Q9NRM7)
T17 construct: purchased DiscoverX (KINOMEscan)
T17 sequence (Q9NRM7 whole entry): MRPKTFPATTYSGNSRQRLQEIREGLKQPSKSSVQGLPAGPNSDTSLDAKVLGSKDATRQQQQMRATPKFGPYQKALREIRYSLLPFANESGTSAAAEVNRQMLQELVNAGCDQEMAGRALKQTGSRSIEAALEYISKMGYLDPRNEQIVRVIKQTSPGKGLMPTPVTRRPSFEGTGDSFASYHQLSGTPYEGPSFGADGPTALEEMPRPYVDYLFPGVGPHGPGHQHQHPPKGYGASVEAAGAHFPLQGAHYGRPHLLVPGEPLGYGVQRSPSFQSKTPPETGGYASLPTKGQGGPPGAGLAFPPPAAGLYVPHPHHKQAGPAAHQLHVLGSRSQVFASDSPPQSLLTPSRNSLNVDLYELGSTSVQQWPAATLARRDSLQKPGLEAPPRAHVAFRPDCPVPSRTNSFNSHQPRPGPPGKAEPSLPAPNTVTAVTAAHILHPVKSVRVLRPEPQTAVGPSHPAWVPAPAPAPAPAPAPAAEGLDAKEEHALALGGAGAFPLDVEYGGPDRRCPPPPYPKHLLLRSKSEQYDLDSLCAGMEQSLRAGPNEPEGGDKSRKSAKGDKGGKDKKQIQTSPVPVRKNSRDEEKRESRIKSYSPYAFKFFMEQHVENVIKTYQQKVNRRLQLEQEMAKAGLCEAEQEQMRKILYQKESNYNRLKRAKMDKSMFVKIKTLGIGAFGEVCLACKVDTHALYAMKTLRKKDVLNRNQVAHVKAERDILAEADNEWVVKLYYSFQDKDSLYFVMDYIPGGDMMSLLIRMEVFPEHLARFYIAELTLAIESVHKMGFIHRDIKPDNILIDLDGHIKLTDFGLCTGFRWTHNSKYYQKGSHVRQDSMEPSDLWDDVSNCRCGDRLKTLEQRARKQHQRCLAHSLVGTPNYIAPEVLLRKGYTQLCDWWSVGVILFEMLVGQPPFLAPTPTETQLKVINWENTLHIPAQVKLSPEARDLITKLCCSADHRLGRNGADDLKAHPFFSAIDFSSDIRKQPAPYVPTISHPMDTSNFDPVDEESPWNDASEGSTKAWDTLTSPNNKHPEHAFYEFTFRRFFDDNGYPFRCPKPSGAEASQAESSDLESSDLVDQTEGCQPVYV

[3] = biological target: T18, ABL1(Y253F)-phosphorylated (Homo sapiens, UniProt P00519, Y253F)
T18 construct: purchased DiscoverX (KINOMEscan)

CAMK1D = biological target: T19, CAMK1D (Homo sapiens, UniProt Q8IU85)
T19 construct: purchased DiscoverX (KINOMEscan)

CIT = biological target: T20, CIT (Homo sapiens, UniProt O14578)
T20 construct: purchased DiscoverX (KINOMEscan)

EPHA1 = biological target: T21, EPHA1 (Homo sapiens, UniProt P21709)
T21 construct: purchased DiscoverX (KINOMEscan)
T21 sequence (P21709 26-976): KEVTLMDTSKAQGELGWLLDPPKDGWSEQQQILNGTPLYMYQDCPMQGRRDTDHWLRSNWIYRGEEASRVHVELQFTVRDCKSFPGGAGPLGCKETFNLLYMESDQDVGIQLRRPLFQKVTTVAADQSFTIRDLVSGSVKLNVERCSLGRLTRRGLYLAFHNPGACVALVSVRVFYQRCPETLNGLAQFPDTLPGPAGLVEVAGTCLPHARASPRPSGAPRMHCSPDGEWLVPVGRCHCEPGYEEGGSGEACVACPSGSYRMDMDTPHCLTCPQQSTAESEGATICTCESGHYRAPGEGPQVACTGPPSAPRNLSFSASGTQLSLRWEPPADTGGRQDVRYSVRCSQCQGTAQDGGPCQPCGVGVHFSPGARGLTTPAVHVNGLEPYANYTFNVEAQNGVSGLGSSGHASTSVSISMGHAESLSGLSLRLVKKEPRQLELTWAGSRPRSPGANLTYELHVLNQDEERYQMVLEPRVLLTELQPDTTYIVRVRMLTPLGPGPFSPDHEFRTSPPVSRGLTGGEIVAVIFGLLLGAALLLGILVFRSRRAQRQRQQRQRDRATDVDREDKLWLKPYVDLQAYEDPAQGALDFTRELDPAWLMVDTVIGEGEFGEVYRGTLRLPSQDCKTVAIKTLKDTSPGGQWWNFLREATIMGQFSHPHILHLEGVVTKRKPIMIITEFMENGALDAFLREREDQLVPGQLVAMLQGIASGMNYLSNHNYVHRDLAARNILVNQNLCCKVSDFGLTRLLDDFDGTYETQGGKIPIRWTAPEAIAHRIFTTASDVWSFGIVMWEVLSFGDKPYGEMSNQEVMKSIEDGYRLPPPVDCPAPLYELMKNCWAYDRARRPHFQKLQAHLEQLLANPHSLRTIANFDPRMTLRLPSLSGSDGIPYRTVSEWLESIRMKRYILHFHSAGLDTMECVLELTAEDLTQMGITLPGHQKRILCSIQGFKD

MEK1 = biological target: T22, MEK1 (Homo sapiens, UniProt Q02750)
T22 construct: purchased DiscoverX (KINOMEscan)

GSK3B = biological target: T23, GSK3B (Homo sapiens, UniProt P49841)
T23 construct: purchased DiscoverX (KINOMEscan)

HIPK2 = biological target: T24, HIPK2 (Homo sapiens, UniProt Q9H2X6)
T24 construct: purchased DiscoverX (KINOMEscan)

CDK8 = biological target: T25, CDK8 (Homo sapiens, UniProt P49336)
T25 construct: purchased DiscoverX (KINOMEscan)

MEK4 = biological target: T26, MEK4 (Homo sapiens, UniProt P45985)
T26 construct: purchased DiscoverX (KINOMEscan)

TEC = biological target: T27, TEC (Homo sapiens, UniProt P42680)
T27 construct: purchased DiscoverX (KINOMEscan)

TXK = biological target: T28, TXK (Homo sapiens, UniProt P42681)
T28 construct: purchased DiscoverX (KINOMEscan)

ACVR2A = biological target: T29, ACVR2A (Homo sapiens, UniProt P27037)
T29 construct: purchased DiscoverX (KINOMEscan)
T29 sequence (P27037 20-513): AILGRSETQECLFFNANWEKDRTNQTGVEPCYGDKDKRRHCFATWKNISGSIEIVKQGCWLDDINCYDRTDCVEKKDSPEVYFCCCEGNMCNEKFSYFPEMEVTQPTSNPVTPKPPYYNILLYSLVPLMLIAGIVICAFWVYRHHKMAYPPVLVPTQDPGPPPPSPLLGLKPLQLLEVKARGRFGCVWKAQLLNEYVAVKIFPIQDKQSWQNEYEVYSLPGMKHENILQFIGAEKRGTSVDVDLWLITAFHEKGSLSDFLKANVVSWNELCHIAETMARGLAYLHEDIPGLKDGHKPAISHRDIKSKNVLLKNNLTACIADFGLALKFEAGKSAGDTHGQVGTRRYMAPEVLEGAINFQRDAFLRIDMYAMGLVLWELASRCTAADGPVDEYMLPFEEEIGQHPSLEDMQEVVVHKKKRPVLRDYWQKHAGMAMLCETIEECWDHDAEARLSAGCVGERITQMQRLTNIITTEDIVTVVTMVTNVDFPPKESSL

FGFR4 = biological target: T30, FGFR4 (Homo sapiens, UniProt P22455)
T30 construct: purchased DiscoverX (KINOMEscan)

LIMK1 = biological target: T31, LIMK1 (Homo sapiens, UniProt P53667)
T31 construct: purchased DiscoverX (KINOMEscan)

[4] = biological target: T32, ABL1(H396P)-nonphosphorylated (Homo sapiens, UniProt P00519, H396P)
T32 construct: purchased DiscoverX (KINOMEscan)

AMPK-alpha1 = biological target: T33, AMPK-alpha1 (Homo sapiens, UniProt Q13131)
T33 construct: purchased DiscoverX (KINOMEscan)

MET(M1250T) = biological target: T34, MET(M1250T) (Homo sapiens, UniProt P08581, M1250T)
T34 construct: purchased DiscoverX (KINOMEscan)

KIT(V559D) = biological target: T35, KIT(V559D) (Homo sapiens, UniProt P10721, V559D)
T35 construct: purchased DiscoverX (KINOMEscan)

CSK = biological target: T36, CSK (Homo sapiens, UniProt P41240)
T36 construct: purchased DiscoverX (KINOMEscan)

T1 sequence (O75676 411-674 limits assumed): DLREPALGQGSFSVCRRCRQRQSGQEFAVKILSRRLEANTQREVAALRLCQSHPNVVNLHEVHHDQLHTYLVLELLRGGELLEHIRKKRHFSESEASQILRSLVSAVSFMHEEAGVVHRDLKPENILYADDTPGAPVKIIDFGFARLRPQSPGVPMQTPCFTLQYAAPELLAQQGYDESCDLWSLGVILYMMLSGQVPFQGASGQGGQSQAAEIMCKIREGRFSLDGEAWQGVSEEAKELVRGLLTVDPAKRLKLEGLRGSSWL

Compound `COc1cc(/C=C2\N=C(N)NC2=O)ccc1O` [Polyandrocarpamine A] has a Score [1] of 22, a Score (KIT(L576P)) of 99 and a Score (DMPK) of 100. For the same compound, the Score (CDK2) was 91, the Score (LRRK2(G2019S)) was 100 and the Score (DAPK2) was 58. For the same compound, the Score [2] was 98, the Score (CAMK2G) was 99 and the Score (MST1) was 70. The Score (AKT2) was 100, the Score (MST3) was 100 and the Score (HCK) was 100. For the same compound, the Score (MAP3K1) was 100, the Score (EPHB3) was 100 and the Score (CDK11) was 100. The Score (FRK) was 100, the Score (LATS2) was 100 and the Score [3] was 100. For the same compound, the Score (CAMK1D) was 100, the Score (CIT) was 100 and the Score (EPHA1) was 100. For the same compound, the Score (MEK1) was 100, the Score (GSK3B) was 100 and the Score (HIPK2) was 50. The Score (CDK8) was 100, the Score (MEK4) was 100 and the Score (TEC) was 98. It also gave a Score (TXK) of 100, a Score (ACVR2A) of 100 and a Score (FGFR4) of 98. It also gave a Score (LIMK1) of 100, a Score [4] of 95 and a Score (AMPK-alpha1) of 100. For the same compound, the Score (MET(M1250T)) was 97, the Score (KIT(V559D)) was 91 and the Score (CSK) was 100.
